Assay results published in patent US20230174608A1, “Polypeptide Derivative Having Dual Receptor Agonistic Action and Use Thereof” (TIANJIN INSTITUTE OF PHARMACEUTICAL RESEARCH CO., LTD., priority 2020, published 2023).
*1 amine or outer side, *2 acyl side, *3 side chain or, on linkers, in order; H or OH if unused. Where a SMILES comes first, the peptide text is derived from it. Side-chain parts run from the residue outwards. [ ]: non-standard residue; d: D form. The star is where a group is joined. C18 diacid = O=C(O)CCCCCCCCCCCCCCCCC(=O)*; γGlu = O=C(O)[C@H](CCC(=O)[*:2])N[*:1]; AEEA = NCCOCCOCC(=O)O; Aib = CC(C)(N)C(=O)O

Experiments:
GLP-1R = target: T1, GLP-1R (Homo sapiens, UniProt P43220); assay: GLP-1 receptor-mediated cAMP production in vitro; assay type: cell-based; details: HEK293 cell line stably expressing GLP-1R
T1 construct: expressed in transfected cells
T1 sequence (P43220 24-463, species assumed): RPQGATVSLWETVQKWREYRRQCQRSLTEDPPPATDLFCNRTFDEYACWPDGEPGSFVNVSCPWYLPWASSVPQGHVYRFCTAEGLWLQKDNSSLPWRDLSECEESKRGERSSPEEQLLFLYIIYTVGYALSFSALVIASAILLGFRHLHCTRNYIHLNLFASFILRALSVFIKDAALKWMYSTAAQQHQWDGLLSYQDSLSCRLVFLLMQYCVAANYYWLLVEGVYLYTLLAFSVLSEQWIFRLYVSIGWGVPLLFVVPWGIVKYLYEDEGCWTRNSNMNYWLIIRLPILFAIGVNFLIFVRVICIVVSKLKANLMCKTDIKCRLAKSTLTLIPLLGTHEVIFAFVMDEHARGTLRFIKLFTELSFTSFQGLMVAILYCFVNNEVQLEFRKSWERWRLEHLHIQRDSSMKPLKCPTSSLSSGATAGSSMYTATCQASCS
Method: (§1) HEK293 cell line stably expressing GLP-1R or GCGR was used for screening GLP-1R and GCGR agonist.
(§2) Preparation of test sample: each compound was prepared into 100 μM stock solution, and then gradually diluted to working concentrations of 1 μM, 100 nM, 10 nM, 1 nM, 10^−1 nM, 10^−2 nM, 10^−3 nM, and H2O.
(§3) 1) Each compound to be tested was mixed with a serum-free medium (containing 0.1% BSA and 0.5 mM IBMX) to obtain a solution at a concentration 2 times the working concentration.
(§4) 2) The cells were digested, suspended in a serum-free medium (containing 0.5 mM IBMX), counted, and placed in a 384-well plate at a density of 1,000 cells/5 μL/well, then 5 μL of the testing compound was added, and the plate was placed in dark for reaction for 30 min.
(§5) 3) After the reaction was completed, a substrate for detecting cAMP was added, and the plate was placed in dark for reaction at the room temperature for 60 min.
(§6) 4) After the reaction was completed, the plate was placed on the Envision2104 multifunctional microplate reader for detection, and the ratio of optical density (OD) values at 665 nm and 615 nm were read out.

GCGR = target: T2, GCGR (Homo sapiens, UniProt P47871); assay: GC receptor-mediated cAMP production in vitro; assay type: cell-based; details: HEK293 cell line stably expressing GCGR
T2 construct: expressed in transfected cells
T2 sequence (P47871 26-477, species assumed): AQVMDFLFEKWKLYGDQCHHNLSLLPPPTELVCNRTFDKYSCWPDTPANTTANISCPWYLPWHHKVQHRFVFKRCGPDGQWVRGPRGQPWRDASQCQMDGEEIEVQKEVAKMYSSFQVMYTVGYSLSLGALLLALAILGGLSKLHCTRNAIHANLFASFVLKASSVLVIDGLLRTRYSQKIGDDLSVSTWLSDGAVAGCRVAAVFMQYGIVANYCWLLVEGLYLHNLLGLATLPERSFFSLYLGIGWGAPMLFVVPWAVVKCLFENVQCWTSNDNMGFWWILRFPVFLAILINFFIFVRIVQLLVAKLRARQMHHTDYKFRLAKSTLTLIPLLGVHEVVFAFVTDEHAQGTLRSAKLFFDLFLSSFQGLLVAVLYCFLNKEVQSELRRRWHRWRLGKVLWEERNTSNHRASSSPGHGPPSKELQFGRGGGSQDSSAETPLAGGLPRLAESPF
Method: as §1, §2, §3, §4, §5, §6

Compound	EC50 (GLP-1R) [nM]	EC50 (GCGR) [nM]
CCCCCCCCCCCCCCCC(=O)N[C@@H](CCC(=O)NCCCC[C@H](NC(=O)[C@H](C)NC(=O)[C@H](C)NC(=O)[C@H](CCCNC(=N)N)NC(=O)[C@H](CCC(=O)O)NC(=O)[C@H](CC(=O)O)NC(=O)[C@H](CC(C)C)NC(=O)[C@H](Cc1ccc(O)cc1)NC(=O)[C@H](CCCCN)NC(=O)[C@H](CO)NC(=O)[C@H](Cc1ccc(O)cc1)NC(=O)[C@H](CC(=O)O)NC(=O)[C@H](CO)NC(=O)[C@@H](NC(=O)[C@H](Cc1ccccc1)NC(=O)[C@@H](NC(=O)CNC(=O)[C@H](CCC(N)=O)NC(=O)[C@H](CO)NC(=O)[C@@H](N)Cc1c[nH]cn1)[C@@H](C)O)[C@@H](C)O)C(=O)N[C@@H](CCC(=O)O)C(=O)N[C@@H](Cc1ccccc1)C(=O)N[C@H](C(=O)N[C@@H](C)C(=O)N[C@@H](Cc1c[nH]c2ccccc12)C(=O)N[C@@H](CC(C)C)C(=O)N[C@@H](CCC(=O)O)C(=O)N[C@@H](C)C(=O)NCC(=O)NCC(N)=O)[C@@H](C)CC)C(=O)O [dgc001] (HELM PEPTIDE1{H.S.Q.G.T.F.T.S.D.Y.S.K.Y.L.D.E.R.A.A.K.E.F.I.A.W.L.E.A.G.G.[am]}|PEPTIDE2{[CCCCCCCCCCCCCCCC(=O)[*:2]].[gGlu]}$PEPTIDE1,PEPTIDE2,20:R3-2:R2$$$V2.0; N-terminus assumed)	1.13	0.806
CC[C@H](C)[C@H](NC(=O)[C@H](Cc1ccccc1)NC(=O)[C@H](CCC(=O)O)NC(=O)[C@H](CCCCNC(=O)COCCOCCNC(=O)COCCOCCNC(=O)CC[C@H](NC(=O)CCCCCCCCCCCCCCCCC(=O)O)C(=O)O)NC(=O)[C@H](C)NC(=O)[C@H](C)NC(=O)[C@H](CCCNC(=N)N)NC(=O)[C@H](CCC(=O)O)NC(=O)[C@H](CCC(=O)O)NC(=O)[C@H](CC(C)C)NC(=O)[C@H](Cc1ccc(O)cc1)NC(=O)[C@H](CCCCN)NC(=O)[C@H](CO)NC(=O)[C@H](Cc1ccc(O)cc1)NC(=O)[C@H](CC(=O)O)NC(=O)[C@H](CO)NC(=O)[C@@H](NC(=O)[C@H](Cc1ccccc1)NC(=O)[C@@H](NC(=O)CNC(=O)[C@H](CCC(N)=O)NC(=O)C(C)(C)NC(=O)[C@@H](N)Cc1c[nH]cn1)[C@@H](C)O)[C@@H](C)O)C(=O)N[C@@H](C)C(=O)N[C@@H](Cc1c[nH]c2ccccc12)C(=O)N[C@@H](CC(C)C)C(=O)N[C@@H](CCC(=O)O)C(=O)N[C@@H](C)C(=O)NCC(=O)NCC(N)=O [dgc006] (H-H[Aib]QGTFTSDYSKYLEERAAK([AEEA-AEEA-γGlu-C18 diacid])EFIAWLEAGG-NH2; N-terminus assumed)	0.472	6.41
CCCCCCCCCCCCCCCC(=O)N[C@@H](CCC(=O)NCCCC[C@H](NC(=O)[C@H](C)NC(=O)[C@H](C)NC(=O)[C@H](CCCNC(=N)N)NC(=O)[C@H](CCC(=O)O)NC(=O)[C@H](CC(=O)O)NC(=O)[C@H](CC(C)C)NC(=O)[C@H](Cc1ccc(O)cc1)NC(=O)[C@H](CCCCN)NC(=O)[C@H](CO)NC(=O)[C@H](Cc1ccc(O)cc1)NC(=O)[C@H](CC(=O)O)NC(=O)[C@H](CO)NC(=O)[C@@H](NC(=O)[C@H](Cc1ccccc1)NC(=O)[C@@H](NC(=O)CNC(=O)[C@H](CCC(N)=O)NC(=O)C(C)(C)NC(=O)[C@@H](N)Cc1c[nH]cn1)[C@@H](C)O)[C@@H](C)O)C(=O)N[C@@H](CCC(=O)O)C(=O)N[C@@H](Cc1ccccc1)C(=O)N[C@H](C(=O)N[C@@H](C)C(=O)N[C@@H](Cc1c[nH]c2ccccc12)C(=O)N[C@@H](CC(C)C)C(=O)N[C@@H](CCC(=O)O)C(=O)N[C@@H](CO)C(=O)NCC(=O)NCC(N)=O)[C@@H](C)CC)C(=O)O [dgc007] (HELM PEPTIDE1{H.[Aib].Q.G.T.F.T.S.D.Y.S.K.Y.L.D.E.R.A.A.K.E.F.I.A.W.L.E.S.G.G.[am]}|PEPTIDE2{[CCCCCCCCCCCCCCCC(=O)[*:2]].[gGlu]}$PEPTIDE1,PEPTIDE2,20:R3-2:R2$$$V2.0; N-terminus assumed)	0.28	0.971
